Test results from ChEMBL document CHEMBL1201862, “PubChem BioAssay data set” (2004).
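Compound exposure: 48 hours, 5 concentrations, 96-well plates. GI50 marks 50% less growth.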 The source made the active and inactive calls. Cut-off read from the data, not from the text of the source: active = GI50 up to about 1.1 µM and inactive = higher.

Key:
Experiment in all cases: DTP human tumour cell line panel, 48 h
CCRF-CEM = system: CCRF-CEM
COLO 205 = system: COLO 205
HCT-116 = system: HCT-116
HOP-92 = system: HOP-92
NCI-H226 = system: NCI-H226
OVCAR-4 = system: OVCAR-4
OVCAR-8 = system: OVCAR-8
SF-295 = system: SF-295
SF-539 = system: SF-539
SK-MEL-28 = system: SK-MEL-28
SK-MEL-2 = system: SK-MEL-2
SK-MEL-5 = system: SK-MEL-5
SN12C = system: SN12C
SNB-75 = system: SNB-75
SR = system: SR
SW-620 = system: SW-620
SK-OV-3 = system: SK-OV-3
DU-145 = system: DU-145
NCI/ADR-RES = system: NCI/ADR-RES
T47D = system: T47D

Structure (SMILES)	GI50 (CCRF-CEM)	GI50 (COLO 205)	GI50 (HCT-116)	GI50 (HOP-92)	GI50 (NCI-H226)	GI50 (OVCAR-4)	GI50 (OVCAR-8)	GI50 (SF-295)	GI50 (SF-539)	GI50 (SK-MEL-28)	GI50 (SK-MEL-2)	GI50 (SK-MEL-5)	GI50 (SN12C)	GI50 (SNB-75)	GI50 (SR)	GI50 (SW-620)	GI50 (SK-OV-3)	GI50 (DU-145)	GI50 (NCI/ADR-RES)	GI50 (T47D)
C=CCc1cc2cccc(OC)c2oc1=O	45.2 µM (inactive)	> 100 µM (inactive)	> 100 µM (inactive)	92.3 µM (inactive)	> 100 µM (inactive)	> 100 µM (inactive)	> 100 µM (inactive)	> 100 µM (inactive)	> 100 µM (inactive)	> 100 µM (inactive)	> 100 µM (inactive)	87.3 µM (inactive)	> 100 µM (inactive)	87.5 µM (inactive)	44.3 µM (inactive)	> 100 µM (inactive)				
C=C1C2CCCC1C1(S(C)(=O)=O)CCCCC21O (stereo not drawn)		> 100 µM (inactive)	> 100 µM (inactive)	< 0.01 µM (active)	> 100 µM (inactive)	> 100 µM (inactive)	> 100 µM (inactive)	> 100 µM (inactive)	> 100 µM (inactive)	> 100 µM (inactive)	> 100 µM (inactive)	> 100 µM (inactive)	> 100 µM (inactive)	> 100 µM (inactive)	> 100 µM (inactive)	> 100 µM (inactive)	> 100 µM (inactive)			
O=c1c2cc([N+](=O)[O-])ccc2[nH]n1Cc1ccccc1Cl	85.5 µM (inactive)	73.3 µM (inactive)	55.7 µM (inactive)	27.8 µM (inactive)	74.1 µM (inactive)	> 100 µM (inactive)	75.7 µM (inactive)	> 100 µM (inactive)	98.4 µM (inactive)	44.6 µM (inactive)		34.7 µM (inactive)	86.1 µM (inactive)	> 100 µM (inactive)	43.5 µM (inactive)	88.9 µM (inactive)		47 µM (inactive)	40.6 µM (inactive)	
CC(CCc1ccccc1)NCC(O)n1c(/N=N/N(C)C)nc2c1c(=O)n(C)c(=O)n2C (stereo not drawn)	> 100 µM (inactive)	> 100 µM (inactive)	> 100 µM (inactive)	> 100 µM (inactive)	> 100 µM (inactive)	> 100 µM (inactive)	> 100 µM (inactive)	> 100 µM (inactive)	> 100 µM (inactive)	> 100 µM (inactive)	> 100 µM (inactive)	78.7 µM (inactive)		9.62 µM (inactive)	43.2 µM (inactive)	> 100 µM (inactive)	> 100 µM (inactive)		> 100 µM (inactive)	> 100 µM (inactive)
CCOC(OCC)C(CC)[Se]c1ccccc1 (stereo not drawn)	16.3 µM (inactive)	39.8 µM (inactive)	31.8 µM (inactive)	28.6 µM (inactive)	27.3 µM (inactive)	13.3 µM (inactive)	> 100 µM (inactive)	> 100 µM (inactive)	> 100 µM (inactive)	> 100 µM (inactive)	> 100 µM (inactive)	> 100 µM (inactive)	41 µM (inactive)	35.3 µM (inactive)	10.1 µM (inactive)		> 100 µM (inactive)			
NC(=O)COC(=O)c1c(Cl)nc2sccn12	> 31.6 µM (inactive)	> 60.3 µM (inactive)	> 31.6 µM (inactive)	> 100 µM (inactive)	> 100 µM (inactive)	> 100 µM (inactive)	> 100 µM (inactive)	> 100 µM (inactive)	> 100 µM (inactive)	> 100 µM (inactive)	> 100 µM (inactive)	> 100 µM (inactive)	> 100 µM (inactive)	> 100 µM (inactive)	33.8 µM (inactive)	> 35.3 µM (inactive)	> 100 µM (inactive)			
CC1CC2C3CCC4=CC(=O)C=CC4(C)C3(F)C(O)CC2(C)C1(O)C(=O)CO.Cc1cc(NS(=O)(=O)c2ccc(/N=N\c3cc(/N=N/c4ccc(S(=O)(=O)Nc5cc(C)nc(C)n5)cc4)c(OC(=O)C(Cl)Cl)c4cccc(NC(=O)C(Cl)Cl)c34)cc2)nc(C)n1		28.2 µM (inactive)	34.3 µM (inactive)	32.5 µM (inactive)	22.2 µM (inactive)	19.8 µM (inactive)	22.9 µM (inactive)	28.2 µM (inactive)	20.9 µM (inactive)	27 µM (inactive)	29.4 µM (inactive)	2.97 µM (inactive)	12.6 µM (inactive)	42.8 µM (inactive)	25.4 µM (inactive)	20.8 µM (inactive)	> 100 µM (inactive)			
Cc1c(/C=N/NC(=S)Nc2ccc([N+](=O)[O-])cc2)c(=O)n(-c2ccccc2)n1C	7.29 µM (inactive)	50.4 µM (inactive)	18.6 µM (inactive)	11.8 µM (inactive)	10.8 µM (inactive)	14.6 µM (inactive)	13.6 µM (inactive)	8.53 µM (inactive)	16.4 µM (inactive)	> 100 µM (inactive)	15.5 µM (inactive)	33.8 µM (inactive)		13.3 µM (inactive)	17.4 µM (inactive)	25.6 µM (inactive)	13.5 µM (inactive)		9.66 µM (inactive)	
